The values that follow come from article PMC9549714 (iScience, 2022).

The target in test [1] is T1, PPAT (phosphoribosyl pyrophosphate amidotransferase) (Homo sapiens, UniProt Q06203). Briefly: glutamate production from glutamine and PRPP, glutamate assay kit. The test is classed as biochemical.
Test [2] deals with T1, PPAT (phosphoribosyl pyrophosphate amidotransferase). In words: PPAT activity assay, presumably as above. The test is classed as biochemical.

T1 sequence (Q06203 12-517): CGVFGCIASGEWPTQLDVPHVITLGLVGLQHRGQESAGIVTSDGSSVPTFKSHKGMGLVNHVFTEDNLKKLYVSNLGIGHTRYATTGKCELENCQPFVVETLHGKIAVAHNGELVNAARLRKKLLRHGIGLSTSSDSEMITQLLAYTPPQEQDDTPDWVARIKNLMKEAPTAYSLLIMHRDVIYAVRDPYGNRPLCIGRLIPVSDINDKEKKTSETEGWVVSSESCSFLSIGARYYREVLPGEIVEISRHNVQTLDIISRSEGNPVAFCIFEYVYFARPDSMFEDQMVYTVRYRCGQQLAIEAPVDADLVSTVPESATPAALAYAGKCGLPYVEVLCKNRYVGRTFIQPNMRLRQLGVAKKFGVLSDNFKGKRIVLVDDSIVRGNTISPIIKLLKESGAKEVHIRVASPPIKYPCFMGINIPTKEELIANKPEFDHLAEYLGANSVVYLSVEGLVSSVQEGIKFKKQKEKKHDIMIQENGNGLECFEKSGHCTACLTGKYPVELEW

In turn, `Cc1cc2nc3c(=O)[nH]c(=O)nc-3n(C[C@H](O)[C@H](O)[C@H](O)COP(=O)(O)O)c2cc1C` [ZINC8551105, riboflavin 5′-monophosphate] yielded an IC50 in test [1] of 7.5 µM. `Cc1cc2nc3c(=O)[nH]c(=O)nc-3n(C[C@H](O)[C@H](O)[C@H](O)CO)c2cc1C` [riboflavin] registered an IC50 in test [2] of 49.9 µM.

As a reminder, the IC50 is the midpoint of a concentration-inhibition curve. A low value points to inhibition by little substance.
